Consider 4 compounds from ChEMBL document CHEMBL1153286, “Synthesis and biological evaluation of sulfonylurea and thiourea derivatives substituted with benzenesulfonamide groups as potential hypoglycemic agents” (Bioorg Med Chem Lett, 2009).

The source made the active and inactive calls. The calls are words filed in the database; no cut-off is given here.

A short description of data set [1]: Antiplatelet activity in human platelets assessed as inhibition of ADP-induced platelet aggregation. Format: functional, cell-based.
Data set [2] relates to Mus musculus. Put plainly: Protection against collagen-epinephrine-induced mortality in Chinese Kunming cerebral thrombosis mouse model assessed as survival rate at 60 mg/kg, po administered once daily for 7 days measured on day 7 within 15 mins of collagen-epinephrine challenge. It is filed as functional.
A short description of data set [3]: Antiplatelet activity in human platelets assessed as inhibition of arachidonic acid-induced platelet aggregation. It is filed as functional, cell-based.
The test system of data set [4] is Adipocyte. Put plainly: Effect on 2-deoxy-D-[1-3H]glucose transport in Sprague-Dawley rat adipocytes at 100 uM in presence of insulin by liquid scintillation counting. Format: functional.
For data set [5], the system named is Adipocyte. Put plainly: Effect on 2-deoxy-D-[1-3H]glucose transport in Sprague-Dawley rat adipocytes at 1 uM in absence of insulin by liquid scintillation counting. It is filed as functional.
Data set [6] can be described thus: Increase in insulin release in rat pancreatic cells at 100 umol/L after 6 hrs by radioimmunoassay relative to basal level. It is filed as functional.
Data set [7] relates to Adipocyte. Description: Effect on 2-deoxy-D-[1-3H]glucose transport in Sprague-Dawley rat adipocytes at 1 uM in presence of insulin by liquid scintillation counting. Format: functional.
For data set [8], the system named is Adipocyte. Description: Effect on 2-deoxy-D-[1-3H]glucose transport in Sprague-Dawley rat adipocytes at 10 uM in presence of insulin by liquid scintillation counting. It is filed as functional.
In data set [9] the test system is Adipocyte. Description: Effect on 2-deoxy-D-[1-3H]glucose transport in Sprague-Dawley rat adipocytes at 10 uM in absence of insulin by liquid scintillation counting. Format: functional.
The nature of data set [10]: Effect on insulin release in rat pancreatic cells at 100 umol/L after 6 hrs by radioimmunoassay. It is filed as functional.
The test system of data set [11] is Adipocyte. Description: Effect on 2-deoxy-D-[1-3H]glucose transport in Sprague-Dawley rat adipocytes at 100 uM in absence of insulin by liquid scintillation counting. Format: functional.
The subject of data set [12] is Adipocyte. Description: Increase in glucose absorption in Sprague-Dawley rat adipocytes at 100 uM by liquid scintillation counting relative to basal level. Format: functional.
A short description of data set [13]: Effect on insulin release in rat pancreatic cells at 10 umol/L after 6 hrs by radioimmunoassay. Format: functional.
Data set [14] can be described thus: Effect on insulin release in rat pancreatic cells at 1 umol/L after 6 hrs by radioimmunoassay. Format: functional.
Data set [15] in a line: Half life in rat at 2.5 mg/kg, iv. It is filed as ADME, organism-based. More on the design: dose 2.5 mg/kg, route intravenous. Conditions: in vivo.
The test system of data set [16] is Mus musculus. Put plainly: Protection against collagen-epinephrine-induced mortality in Chinese Kunming cerebral thrombosis mouse model assessed as survival rate at 20 mg/kg, po administered once daily for 7 days measured on day 7 within 15 mins of collagen-epinephrine challenge. It is filed as functional.
Data set [17] relates to Mus musculus. Description: Reduction of plasma glucose level in fasted C57BL/6J mouse at 2.5 mg/kg, po administered daily for 3 days measured on day 5 by glucose oxidase trinder method. It is filed as functional, organism-based. More on the design: dose 2.5 mg/kg.
Data set [18] is described as follows: Clearance in rat at 2.5 mg/kg, iv or 5 mg/kg, po. It is filed as ADME, organism-based. Conditions: in vivo.
A short description of data set [19]: Cmax in rat at 2.5 mg/kg, iv or 5 mg/kg, po. To be noted: in vivo. Format: ADME, organism-based.
Another data set relates to Rattus norvegicus. Description: AUC in rat at 5 mg/kg, po. Format: ADME, organism-based, Plasma. More on the design: dose 5 mg/kg, route oral. Conditions: in vivo.
Data set [20] is described as follows: Oral bioavailability in rat at 5 mg/kg, po. Format: ADME, organism-based. Conditions: in vivo.
The nature of data set [21]: Half life in rat at 5 mg/kg, po. Format: ADME, organism-based. More on the design: dose 5 mg/kg, route oral. To be noted: in vivo.
The test system of data set [22] is Mus musculus. Put plainly: Protection against collagen-epinephrine-induced mortality in Chinese Kunming cerebral thrombosis mouse model assessed as survival rate at 10 mg/kg, po administered once daily for 7 days measured on day 7 within 15 mins of collagen-epinephrine challenge. It is filed as functional.
The test system of data set [23] is Mus musculus. Put plainly: Reduction of plasma glucose level in fasted C57BL/6J mouse at 20 mg/kg, po administered daily for 3 days measured on day 5 after 6 hrs by glucose oxidase trinder method. Format: functional. More on the design: scale not given: the % may be the effect or the level left.
Data set [24] relates to Mus musculus. Description: Reduction of plasma glucose level in fasted C57BL/6J mouse at 7 mg/kg, po administered daily for 3 days measured on day 5 by glucose oxidase trinder method. It is filed as functional, organism-based. More on the design: dose 7 mg/kg.
The nature of data set [25]: Volume of distribution in rat at 2.5 mg/kg, iv or 5 mg/kg, po. To be noted: in vivo. Format: ADME, organism-based.
Data set [26] has as its system Mus musculus. Put plainly: Protection against collagen-epinephrine-induced mortality in Chinese Kunming cerebral thrombosis mouse model assessed as survival rate at 40 mg/kg, po administered once daily for 7 days measured on day 7 within 15 mins of collagen-epinephrine challenge. It is filed as functional.
The nature of data set [27]: Tmax in rat at 2.5 mg/kg, iv or 5 mg/kg, po. Format: ADME, organism-based. To be noted: in vivo.

Take `CC(=O)Oc1ccccc1C(=O)O` [ASPIRIN]: the IC50 – broadly, the midpoint of a concentration-inhibition curve – is 9340 nM in data set [1] and 350 nM in data set [3]. Further, in the data set on Mus musculus [2], the survival at 60 mg/kg amounted to 63.6%.
Turning to `CCC1=C(C)CN(C(=O)NCCc2ccc(S(=O)(=O)NC(=O)N[C@H]3CC[C@H](C)CC3)cc2)C1=O` [GLIMEPIRIDE], the Activity in the data set with Adipocyte [4] came to 13255.41 disintegrations/minute; in the data set with Adipocyte [5], 5061.2 disintegrations/minute; with Adipocyte [7] it was 6365.67 disintegrations/minute; in the data set with Adipocyte [8] it was 8593.72 disintegrations/minute; with Adipocyte [9] it was 7476.6 disintegrations/minute; in [10] it was 48.14 uIU/ml. Moreover, the Activity in the data set with Adipocyte [11] is 11068.51 disintegrations/minute. For the same compound, the entries for the “fold change (FC)” value (in [6]; in the data set with Adipocyte [12]) were 2.03 and 2.5, respectively.
With `CC1CCC(NC(=O)NS(=O)(=O)c2ccc(CCNS(=O)(=O)c3ccc(Cl)cc3)cc2)CC1` (stereo not given), the Activity turned out to be 7013.28 disintegrations/minute in the data set with Adipocyte [4]; 5869.85 disintegrations/minute in the data set with Adipocyte [5]; 41.29 uIU/ml in [13]; 38.15 uIU/ml in [14]; 5972.68 disintegrations/minute in the data set with Adipocyte [7]; 6358.77 disintegrations/minute in the data set on Adipocyte [8]. The values for the Activity (in the data set with Adipocyte [9]; in [10]; in the data set on Adipocyte [11]) were 6411.7 disintegrations/minute, 72.23 uIU/ml and 6960.26 disintegrations/minute, respectively. Moreover, the “fold change (FC)” value came to 3.05 in data set [6] and 1.57 in the data set with Adipocyte [12].
Take `CC1CCC(NC(=O)NS(=O)(=O)c2ccc(CCNS(=O)(=O)c3ccc(Br)cc3)cc2)CC1` (stereo not given): the half-life (as a rule, the time in which the quantity being followed falls by half) in [15] is 1.91 h; in data set [21], 1.77 h. Besides, the Activity in the data set with Adipocyte [4] is recorded as 8486.79 disintegrations/minute; in the data set on Adipocyte [5], 4871.74 disintegrations/minute; in data set [13], 65.21 uIU/ml; in [14] it was 40.79 uIU/ml; in the data set on Adipocyte [7], 5996.43 disintegrations/minute; in the data set on Adipocyte [8], 7979.94 disintegrations/minute. Also, the Activity with Mus musculus [23] is 50%; in the data set with Adipocyte [9] it was 6512.65 disintegrations/minute; in data set [10], 86.08 uIU/ml; in the data set on Adipocyte [11] it was 7674.84 disintegrations/minute. Besides, the survival at 20 mg/kg in the data set on Mus musculus [16] amounted to 45.5%. Also, the outcome in the data set on Mus musculus [17] and in the data set with Mus musculus [24] was Active. In [18], this compound gave a clearance of 6 mL/min. Further, in [19], the maximum concentration (Cmax) (commonly the maximum level reached in the sampled fluid or tissue) was found to be 3330 ng/mL. Besides, the AUC (usually the area under the concentration-time curve, a measure of exposure) in the data set with Rattus norvegicus turned out to be 10000 ng·h/mL. Besides, the “fold change (FC)” value was determined as 3.64 in data set [6] and 1.73 in the data set on Adipocyte [12]. For the same compound, the IC50 in [1] is 3000 nM; in [3], 210 nM. For the same compound, the bioavailability (commonly the share of a dose that reaches the circulation, judged against a reference dose that is usually intravenous) in data set [20] was 52.7%. In addition, the survival at 10 mg/kg in the data set on Mus musculus [22] worked out at 27.3%. Further, the Vd in [25] was determined as 0.78 L/kg. Moreover, in the data set on Mus musculus [26], the survival at 40 mg/kg came to 72.7%. Moreover, the Tmax (usually the time at which the peak concentration occurs) in data set [27] was determined as 0.83 h.
